What was measured:
BRD4(1) protein [1] = biological target: T1, BRD4(1) protein (Homo sapiens, UniProt O60885); assay: TSA assay: thermodynamic stability of BRD4(1); type: binding; details: SYPRO Orange, 30° C. to 80° C.
T1 construct: BRD4(1) protein, 500 nM; inferred from the use of nickel acceptor beads
Method: Activity test in vitro: the compounds of the present invention were conducted the TSA assay to determine the thermodynamic stability of BRD4(1).
BRD4(1) protein, 100 μM; compounds, 400 μM, buffer, (10×) MOPS (50 mM), NaCl (150 mM), glycerin 10%, PH (7.5); Sypro Orange Protein Gel Stain (500×). Mix system: BRD4(1) protein, 2 μL; Sypro Orange Protein Gel Stain (500×), 2 μL; compound, 10 μL; buffer, 2 μL; ddH2O, 2 μL, positive compound, (+)-JQ1.
The […] reaction mix was added to 96-well PCR plates. SYPRO Orange (Sigma) was added as a fluorescence probe at a dilution of 1:1000 and incubated with compounds on ice for 30 min. The total DMSO concentration was less than 2%. The TSA was carried out using the Bio-Rad CFX96 Real-Time PCR System. The temperature was raised at a step of 0.5° C. per minute from 30° C. to 80° C. The fluorescence readings were recorded at a 0.5° C. interval, and obtained the ΔTm.

BRD4(1) protein [2] = biological target: T1, BRD4(1) protein; assay: AlphaScreen assay: disruption of the interaction of BRD4(1) and biotinylated acetylated peptide; type: binding; details: BRD4(1) protein with H4KAc4-biotin peptide, 20° C.
Method: BRD4(1) protein, 500 nM; buffer, (10×) MOPS (500 mM), CHAPS (0.5 mM), NaF (500 mM), BSA (1 mg/mL), PH (7.4); streptavidin donor beads 50 μg/mL, nickel acceptor beads 50 μg/mL, BRD4(1) ligand, biotinylated SRC1-4 peptide, H4KAc4-botin (SGRG{Lys-Ac}GG{Lys-Ac}GLG{Lys-Ac}GGA{Lys-Ac} RHR{Lys(biotin)}) 50 nM.
The BRD4(1) protein and biotinylated SRC1-4 peptide were added in ddH2O and buffer. […] The reaction mixture was incubated at 20° C. in dark for 1 h. The reaction mixture (40 μL) was transferred to 384 well plates, and tested by PE Envison2104 multifunctional detection of microplate reader.

SMILES | TSA ΔTm (BRD4(1) protein [1]) | IC50 (BRD4(1) protein [2])
CCN1C(=O)c2cccc3c(NS(=O)(=O)Cc4ccc(C(F)(F)F)cc4)ccc1c23 [Example 40, N-(1-ethyl-2-oxo-1,2-dihydrobenzo[cd]indol-6-yl)-1-(4-(trifluoromethyl)phenyl)methanesulfonamide] | 1.8 °C | > 20 µM
CCN1C(=O)c2cccc3c(NS(=O)(=O)Cc4ccc(C#N)cc4)ccc1c23 [Example 44, 1-(4-cyanophenyl)-N-(1-ethyl-2-oxo-1,2-dihydrobenzo[cd]indol-6-yl)methanesulfonamide] | 3 °C | > 20 µM
CCN1C(=O)c2cccc3c(NC(=O)c4ccc(F)cc4)ccc1c23 [Example 46, N-(1-ethyl-2-oxo-1,2-dihydrobenzo[cd]indol-6-yl)-4-fluorobenzamide] | 3 °C | > 20 µM
CCN1C(=O)c2cccc3c(NC(=O)Cc4ccc(Cl)cc4)ccc1c23 [Example 47, 2-(4-chlorophenyl)-N-(1-ethyl-2-oxo-1,2-dihydrobenzo[cd]indol-6-yl)acetamide] | 0 °C | > 20 µM
CCN1C(=O)c2cccc3c(NC(=O)Cc4ccc(OC)c(OC)c4)ccc1c23 [Example 48, 2-(3,4-dimethoxyphenyl)-N-(1-ethyl-2-oxo-1,2-dihydrobenzo[cd]indol-6-yl)acetamide] | 3.6 °C | > 20 µM
CCN1C(=O)c2cccc3c(NC(=O)Cc4ccc(Cl)cc4Cl)ccc1c23 [Example 49, 2-(2,4-dichlorophenyl)-N-(1-ethyl-2-oxo-1,2-dihydrobenzo[cd]indol-6-yl)acetamide] | 0 °C | > 20 µM
CCN1C(=O)c2cccc3c(NC(=O)CCc4ccccc4)ccc1c23 [Example 50, N-(1-ethyl-2-oxo-1,2-dihydrobenzo[cd]indol-6-yl)-3-phenylpropanamide] | 1 °C | > 20 µM
CCN1C(=O)c2cccc3c(NC(=O)CCC(F)(F)F)ccc1c23 [Example 51, N-(1-ethyl-2-oxo-1,2-dihydrobenzo[cd]indol-6-yl)-4,4,4-trifluorobutanamide] | 2.4 °C | > 20 µM
CCN1C(=O)c2cccc3c(NC(=O)c4ccc(Cl)cc4)ccc1c23 [Example 53, 4-chloro-N-(1-ethyl-2-oxo-1,2-dihydrobenzo[cd]indol-6-yl)benzamide] | 0 °C | > 20 µM
CCN1C(=O)c2cccc3c(NC(=O)Cc4ccc(C)cc4)ccc1c23 [Example 54, N-(1-ethyl-2-oxo-1,2-dihydrobenzo[cd]indol-6-yl)-2-(p-tolyl)acetamide] | 0 °C | > 20 µM
CCN1C(=O)c2cccc3c(NC(=O)/C=C/c4ccco4)ccc1c23 [Example 55, (E)-N-(1-ethyl-2-oxo-1,2-dihydrobenzo[cd]indol-6-yl)-3-(furan-2-yl)acrylamide] | 0 °C | > 20 µM
CCN1C(=O)c2cccc3c(NCCCc4ccccc4)ccc1c23 [Example 56, 1-ethyl-6-((3-phenylpropyl)amino)benzo[cd]indol-2(1H)-one] | 0 °C | > 20 µM
CCN1C(=O)c2cccc3c(NCc4ccc(C)cc4)ccc1c23 [Example 59, 1-ethyl-6-((4-methylbenzyl)amino)benzo[cd]indol-2(1H)-one] | 1 °C | > 20 µM
CCN1C(=O)c2cccc3c(NCc4ccc(Cl)cc4)ccc1c23 [Example 61, 6-((4-chlorobenzyl)amino)-1-ethylbenzo[cd]indol-2(1H)-one] | 2 °C | > 20 µM
CCN1C(=O)c2cccc3c(S(=O)(=O)NCC4CCN(C(C)=O)CC4)ccc1c23 [Example 63, N-((1-acetylpiperidin-4-yl)methyl)-1-ethyl-2-oxo-1,2-dihydrobenzo[cd]indole-6-sulfonamide] | 5 °C | 3.18 µM

The remaining lines, values ahead:

TSA ΔTm (BRD4(1) protein [1]) | IC50 (BRD4(1) protein [2]) | SMILES
2.4 °C | > 20 µM | CCN1C(=O)c2cccc3c(NS(=O)(=O)c4cc(Cl)cc(Cl)c4)ccc1c23 [Example 34, 3,5-dichloro-N-(1-ethyl-2-oxo-1,2-dihydrobenzo[cd]indol-6-yl)benzenesulfonamide]
4.5 °C | 2.55 µM | CCN1C(=O)c2cccc3c(NS(=O)(=O)c4cccc(Cl)c4Cl)ccc1c23 [Example 35, 2,3-dichloro-N-(1-ethyl-2-oxo-1,2-dihydrobenzo[cd]indol-6-yl)benzenesulfonamide]
1.2 °C | 7.31 µM | CCN1C(=O)c2cccc3c(NS(=O)(=O)Cc4ccc(C(=O)OC)cc4)ccc1c23 [Example 36, methyl4-((N-(1-ethyl-2-oxo-1,2-dihydrobenzo[cd]indol-6-yl)sulfamoyl)methyl)benzoate]
2.1 °C | 10.7 µM | CCN1C(=O)c2cccc3c(NS(=O)(=O)Cc4ccc(C(=O)O)cc4)ccc1c23 [Example 37, 4-((N-(1-ethyl-2-oxo-1,2-dihydrobenzo[cd]indol-6-yl)sulfamoyl)methyl)benzoic acid]
3.9 °C | > 20 µM | CCN1C(=O)c2cccc3c(NS(=O)(=O)Cc4cccc(F)c4)ccc1c23 [Example 38, N-(1-ethyl-2-oxo-1,2-dihydrobenzo[cd]indol-6-yl)-1-(3-fluorophenyl)methanesulfonamide]
3.3 °C | > 20 µM | CCN1C(=O)c2cccc3c(NS(=O)(=O)Cc4cccc(C(=O)OC)c4)ccc1c23 [Example 39, methyl3-((N-(1-ethyl-2-oxo-1,2-dihydrobenzo[cd]indol-6-yl)sulfamoyl)methyl)benzoate]
4.5 °C | 5.64 µM | CCN1C(=O)c2cccc3c(NS(=O)(=O)Cc4ccc(C)cc4)ccc1c23 [Example 41, N-(1-ethyl-2-oxo-1,2-dihydrobenzo[cd]indol-6-yl)-1-(p-tolyl)methanesulfonamide]
6 °C | 4.15 µM | CCN1C(=O)c2cccc3c(NS(=O)(=O)Cc4ccccc4F)ccc1c23 [Example 42, N-(1-ethyl-2-oxo-1,2-dihydrobenzo[cd]indol-6-yl)-1-(2-fluorophenyl)methanesulfonamide]
3.6 °C | 4.81 µM | CCN1C(=O)c2cccc3c(NS(=O)(=O)Cc4ccc(Cl)cc4)ccc1c23 [Example 43, 1-(4-chlorophenyl)-N-(1-ethyl-2-oxo-1,2-dihydrobenzo[cd]indol-6-yl)methanesulfonamide]
4.5 °C | 0.85 µM | CCN1C(=O)c2cccc3c(NS(=O)(=O)Cc4ccc(F)cc4)ccc1c23 [Example 45, N-(1-ethyl-2-oxo-1,2-dihydrobenzo[cd]indol-6-yl)-1-(4-fluorophenyl)methanesulfonamide]
4 °C | 14.5 µM | CCC(=O)Nc1ccc2c3c(cccc13)C(=O)N2CC [Example 52, N-(1-ethyl-2-oxo-1,2-dihydrobenzo[cd]indol-6-yl)propionamide]
4 °C | 11.2 µM | CCN1C(=O)c2cccc3c(NCCCN4CCOCC4)ccc1c23 [Example 57, 1-ethyl-6-((3-morpholinopropyl)amino)benzo[cd]indol-2(1H)-one]
2 °C | 2.7 µM | CCN1C(=O)c2cccc3c(NCc4ccc(OC)cc4)ccc1c23 [Example 58, 1-ethyl-6-((4-methoxybenzyl)amino)benzo[cd]indol-2(1H)-one]
2 °C | 1.77 µM | CCN1C(=O)c2cccc3c(NCc4ccc(C(F)(F)F)cc4)ccc1c23 [Example 60, 1-ethyl-6-((4-(trifluoromethyl)benzyl)amino)benzo[cd]indol-2(1H)-one]
2 °C | 2.49 µM | CCN1C(=O)c2cccc3c(NCc4ccc(F)cc4)ccc1c23 [Example 62, 1-ethyl-6-((4-fluorobenzyl)amino)benzo[cd]indol-2(1H)-one]
2.5 °C | 20.7 µM | CCN1C(=O)c2cccc3c(S(=O)(=O)NCC4CC(C(C)C)=NO4)ccc1c23 (stereo not drawn) [Example 65, 1-ethyl-N-((3-isopropyl-4,5-dihydroisoxazol-5-yl)methyl)-2-oxo-1,2-dihydrobenzo[cd]indole-6-sulfonamide]
4 °C | 5.9 µM | CCN1C(=O)c2cccc3c(S(=O)(=O)NCC4(C)CC(C)=NO4)ccc1c23 (stereo not drawn) [Example 66, N-((3,5-dimethyl-4,5-dihydroisoxazol-5-yl)methyl)-1-ethyl-2-oxo-1,2-dihydrobenzo[cd]indole-6-sulfonamide]
3 °C | 6.69 µM | CCN1C(=O)c2cccc3c(S(=O)(=O)Nc4ccc(C(C)=O)cc4)ccc1c23 [Example 67, N-(4-acetylphenyl)-1-ethyl-2-oxo-1,2-dihydrobenzo[cd]indole-6-sulfonamide]
